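Briefly, cells in 96-well plates were exposed to five compound concentrations for 48 h, and endpoints were estimated by linear interpolation. Abbreviation: GI50, concentration required for 50% inhibition of growth.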 Activity calls are given as the source filed them. Cut-off read from the data, not from the text of the source: active = GI50 up to about 1.1 µM and inactive = higher.
Experiments:
Assay in all cases: inhibition of tumour cell growth, NCI panel, 48 h
[1] = system: NCI/ADR-RES
[2] = system: SW-620
[3] = system: HOP-92
[4] = system: NCI-H23
[5] = system: SK-MEL-28
[6] = system: NCI-H460
[7] = system: M14
[8] = system: OVCAR-3
[9] = system: NCI-H522
[10] = system: Malme-3M
[11] = system: K562
[12] = system: HOP-62
[13] = system: CAKI-1
[14] = system: COLO 205
[15] = system: LOX IMVI
[16] = system: KM12
[17] = system: SK-OV-3
[18] = system: OVCAR-4
[19] = system: UO-31
[20] = system: A498

SMILES | GI50 [1] | GI50 [2] | GI50 [3] | GI50 [4] | GI50 [5] | GI50 [6] | GI50 [7] | GI50 [8] | GI50 [9] | GI50 [10] | GI50 [11] | GI50 [12] | GI50 [13] | GI50 [14] | GI50 [15] | GI50 [16] | GI50 [17] | GI50 [18] | GI50 [19] | GI50 [20]
O=C1CC2(CCCc3sccc32)C(=O)N1 (stereo not given) | > 100 µM (inactive) | > 100 µM (inactive) | > 100 µM (inactive) | > 100 µM (inactive) | > 100 µM (inactive) | > 100 µM (inactive) | > 100 µM (inactive) | > 100 µM (inactive) | > 100 µM (inactive) | > 100 µM (inactive) | > 100 µM (inactive) | > 100 µM (inactive) | > 100 µM (inactive) | > 100 µM (inactive) | > 100 µM (inactive) | > 100 µM (inactive) | > 100 µM (inactive) | > 100 µM (inactive) | > 100 µM (inactive) | > 100 µM (inactive)
O=P1(N(CCCl)CCCl)NCCCO1 (stereo not given) [CYCLOPHOSPHAMIDE ANHYDROUS] | > 250 µM (inactive) | > 250 µM (inactive) | > 246 µM (inactive) | > 235 µM (inactive) | > 250 µM (inactive) | > 238 µM (inactive) | > 250 µM (inactive) | > 243 µM (inactive) | > 250 µM (inactive) | > 250 µM (inactive) | 213 µM (inactive) | > 247 µM (inactive) | > 192 µM (inactive) | > 250 µM (inactive) | 248 µM (inactive) | > 238 µM (inactive) | 248 µM (inactive) | > 250 µM (inactive) | > 250 µM (inactive) | > 238 µM (inactive)
CC(CC(=O)O)(CC(=O)O)c1ccccc1 | > 100 µM (inactive) | > 100 µM (inactive) | > 100 µM (inactive) | > 100 µM (inactive) | > 100 µM (inactive) | > 100 µM (inactive) | > 100 µM (inactive) | > 100 µM (inactive) | > 100 µM (inactive) | > 100 µM (inactive) | 50.2 µM (inactive) | > 100 µM (inactive) | > 100 µM (inactive) | > 100 µM (inactive) | > 100 µM (inactive) | > 100 µM (inactive) | > 100 µM (inactive) | > 100 µM (inactive) | > 100 µM (inactive) | > 100 µM (inactive)
CN(C)CCOc1ccc2c(c1)C/C(=C/c1ncc([N+](=O)[O-])n1C)C2=O | 8.36 µM (inactive) | 1.6 µM (inactive) | 1.83 µM (inactive) | 1 µM (active) | 17.6 µM (inactive) | 0.508 µM (active) | 2.29 µM (inactive) | 2.11 µM (inactive) | 0.918 µM (active) | 1.94 µM (inactive) | 1.49 µM (inactive) | 2.1 µM (inactive) | 2.64 µM (inactive) | 1.56 µM (inactive) | 2.65 µM (inactive) | 2.61 µM (inactive) | 4.8 µM (inactive) | 1.53 µM (inactive) | 1.68 µM (inactive) | 2.23 µM (inactive)
CCOCC(=O)N[C@H]1CCc2cc(OC)c(OC)c(OC)c2-c2ccc(SC)c(=O)cc21 | 0.0159 µM (active) | < 0.01 µM (active) | < 0.01 µM (active) | < 0.01 µM (active) | > 4.65 µM (inactive) | < 0.01 µM (active) | < 0.01 µM (active) | < 0.01 µM (active) | < 0.01 µM (active) | < 0.01 µM (active) | 0.0146 µM (active) | < 0.01 µM (active) | < 0.01 µM (active) | < 0.01 µM (active) | < 0.01 µM (active) | < 0.01 µM (active) | 0.0272 µM (active) | 3.97 µM (inactive) | 0.0188 µM (active) | < 0.01 µM (active)
COc1ccc(N2C(=O)/C(=C\c3cccc(Oc4ccccc4)c3)SC2c2ccccc2)cc1 (stereo not given) | 42.5 µM (inactive) | 32.9 µM (inactive) | 28.2 µM (inactive) | 41.7 µM (inactive) | 38.1 µM (inactive) | > 100 µM (inactive) | 49.7 µM (inactive) | 33.9 µM (inactive) | 8.24 µM (inactive) | 34.6 µM (inactive) | 26.4 µM (inactive) | 64.9 µM (inactive) | > 100 µM (inactive) | 66.8 µM (inactive) | 21.9 µM (inactive) | 45 µM (inactive) | 80.9 µM (inactive) | 40.2 µM (inactive) | 37.4 µM (inactive) | > 100 µM (inactive)
C(=C\c1ccco1)/c1cccc(/C=C/c2ccco2)n1 | > 50 µM (inactive) | > 50 µM (inactive) | > 50 µM (inactive) | > 50 µM (inactive) | > 50 µM (inactive) | > 50 µM (inactive) | > 50 µM (inactive) | > 50 µM (inactive) | > 50 µM (inactive) | > 50 µM (inactive) | > 50 µM (inactive) | > 50 µM (inactive) | > 50 µM (inactive) | > 50 µM (inactive) | > 50 µM (inactive) | > 50 µM (inactive) | > 50 µM (inactive) | > 50 µM (inactive) | > 50 µM (inactive) | > 50 µM (inactive)
O=C(O)C1C2C=CC(O2)C1C(=O)NCc1ccccn1 (stereo not given) | > 100 µM (inactive) | > 100 µM (inactive) | > 100 µM (inactive) | > 100 µM (inactive) | > 100 µM (inactive) | > 100 µM (inactive) | > 100 µM (inactive) | > 100 µM (inactive) | > 100 µM (inactive) | > 100 µM (inactive) | > 100 µM (inactive) | > 100 µM (inactive) | > 100 µM (inactive) | > 100 µM (inactive) | > 100 µM (inactive) | > 100 µM (inactive) | > 100 µM (inactive) | > 100 µM (inactive) | > 100 µM (inactive) | > 100 µM (inactive)
CC(=O)c1c(C(F)(F)F)[n+]([O-])c2cc(Cl)c(Cl)cc2[n+]1[O-] | 1.5 µM (inactive) | 0.393 µM (active) | 0.195 µM (active) | 0.938 µM (active) | 1.88 µM (inactive) | 0.242 µM (active) | 1.21 µM (inactive) | 1.36 µM (inactive) | 0.165 µM (active) | 0.685 µM (active) | 0.977 µM (active) | 0.27 µM (active) | 1.44 µM (inactive) | 0.746 µM (active) | 0.157 µM (active) | 0.109 µM (active) | 1.46 µM (inactive) | 1.4 µM (inactive) | 0.41 µM (active) | 1.15 µM (inactive)
OC1CCCCCCCCCCC1SCCCCl (stereo not given) | > 100 µM (inactive) | > 100 µM (inactive) | > 100 µM (inactive) | > 100 µM (inactive) | > 100 µM (inactive) | > 100 µM (inactive) | > 100 µM (inactive) | > 100 µM (inactive) | > 100 µM (inactive) | 81.8 µM (inactive) | > 100 µM (inactive) | > 100 µM (inactive) | > 100 µM (inactive) | > 100 µM (inactive) | > 100 µM (inactive) | > 100 µM (inactive) | > 100 µM (inactive) | > 100 µM (inactive) | > 100 µM (inactive) | > 100 µM (inactive)
CC(=O)OC/C=C/[C@H](O[Si](C)(C)C(C)(C)C)[C@@H](O)/C=C/COC(C)=O | > 100 µM (inactive) | > 100 µM (inactive) | > 100 µM (inactive) | > 100 µM (inactive) | > 100 µM (inactive) | > 100 µM (inactive) | > 100 µM (inactive) | > 100 µM (inactive) | > 100 µM (inactive) | > 100 µM (inactive) | 23 µM (inactive) | > 100 µM (inactive) | > 100 µM (inactive) | > 100 µM (inactive) | 76.6 µM (inactive) | > 100 µM (inactive) | > 100 µM (inactive) | > 100 µM (inactive) | > 100 µM (inactive) | > 100 µM (inactive)
CN(C)CCOc1ccc(-c2c(Oc3ccc(Cl)cc3)c(=O)oc3ccccc23)cc1 | > 35.1 µM (inactive) | > 23.5 µM (inactive) | 19.5 µM (inactive) | 14.5 µM (inactive) | 3.27 µM (inactive) | 7.35 µM (inactive) | 2.21 µM (inactive) | 12.4 µM (inactive) | 8.75 µM (inactive) | 5.83 µM (inactive) | 3.84 µM (inactive) | 21.9 µM (inactive) | 12.9 µM (inactive) | 3.61 µM (inactive) | 6.98 µM (inactive) | 9.57 µM (inactive) | 10.4 µM (inactive) | 9.68 µM (inactive) | 5.43 µM (inactive) | 19.4 µM (inactive)
O=C(Nc1ccccc1)OC1OC(COC(=O)c2ccccc2)C(OC(=O)c2ccccc2)C1OS(=O)(=O)c1ccc([N+](=O)[O-])cc1 (stereo not given) | > 100 µM (inactive) | > 100 µM (inactive) | > 100 µM (inactive) | > 100 µM (inactive) | > 100 µM (inactive) | > 100 µM (inactive) | > 100 µM (inactive) | 74.6 µM (inactive) | 40.3 µM (inactive) | > 100 µM (inactive) | > 100 µM (inactive) | > 100 µM (inactive) | > 100 µM (inactive) | > 100 µM (inactive) | > 100 µM (inactive) | > 100 µM (inactive) | > 100 µM (inactive) | > 100 µM (inactive) | > 100 µM (inactive) | > 100 µM (inactive)
CCC(=O)OCN1C(=O)C=CC1=O | 24 µM (inactive) | 2.01 µM (inactive) | 15.2 µM (inactive) | 18 µM (inactive) | 18.6 µM (inactive) | 18.6 µM (inactive) | 18.3 µM (inactive) | 7.16 µM (inactive) | 1.91 µM (inactive) | 13.8 µM (inactive) | 3.26 µM (inactive) | 17.8 µM (inactive) | 5.08 µM (inactive) | 4.28 µM (inactive) | 18.5 µM (inactive) | 16.7 µM (inactive) | > 43.1 µM (inactive) | 17.6 µM (inactive) | 7.91 µM (inactive) | > 44.5 µM (inactive)
